Experiments:
Type in all cases: in vivo
Setaria faberi (SETFA) [1] = assay: Pre-emergence Test (glasshouse, percentage damage to the plant); details: 1000 g/ha unless otherwise stated, five-point scale
[2] = system: Echinochloa crus-galli (ECHCG); assay: as above; details: 1000 g/ha unless otherwise stated, five-point scale
[3] = system: Abutilon theophrasti (ABUTH); assay: as above; details: 1000 g/ha unless otherwise stated, five-point scale
[4] = system: Amaranthus retoflexus (AMARE); assay: as above; details: 1000 g/ha unless otherwise stated, five-point scale
[5] = system: Amaranthus retoflexus (AMARE); assay: Post-emergence Test (glasshouse, percentage damage to the plant); details: post-emergence spray, 1000 g/ha unless otherwise stated, evaluated after 13 days
Outline: (§1)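 After sowing in standard soil, pots were kept at 24/16 °C (day/night), 14 h light and 65% humidity. They were sprayed at 1000 g/ha unless otherwise stated, watered twice daily, and assessed for percentage damage at 13 days on a 1–5 scale.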

[6] = system: Ipomoea hederacea (IPOHE); assay: as above; details: post-emergence spray, 1000 g/ha unless otherwise stated, evaluated after 13 days
Outline: (§2)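 Seeds are sown in standard soil under controlled glasshouse conditions. The pots are then sprayed at 1000 g/ha, unless otherwise stated, with compound in acetone/water (50:50) containing 0.5% Tween 20. After 13 days further growth, percentage plant damage is scored from 1 (0-20%) to 5 (81-100%).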

[7] = system: Echinochloa crus-galli (ECHCG); assay: as above; details: post-emergence spray, 1000 g/ha unless otherwise stated, evaluated after 13 days
Outline: as §1

Setaria faberi (SETFA) [8] = assay: as above; details: post-emergence spray, 1000 g/ha unless otherwise stated, evaluated after 13 days
Outline: as §2

Zea mays (ZEAMX) [9] = assay: as above; details: post-emergence spray, 1000 g/ha unless otherwise stated, evaluated after 13 days
Outline: as §2

[10] = system: Abutilon theophrasti (ABUTH); assay: as above; details: post-emergence spray, 1000 g/ha unless otherwise stated, evaluated after 13 days
Outline: as §1

Zea mays (ZEAMX) [11] = assay: Pre-emergence Test (glasshouse, percentage damage to the plant); details: 1000 g/ha unless otherwise stated, five-point scale
[12] = system: Ipomoea hederacea (IPOHE); assay: as above; details: 1000 g/ha unless otherwise stated, five-point scale

| SMILES | percentage damage to the plant, SETFA (Setaria faberi (SETFA) [1]) | percentage damage to the plant, ECHCG [2] | percentage damage to the plant, ABUTH [3] | percentage damage to the plant, AMARE [4] | Post-emergence Test AMARE, percentage damage to the plant (five-point scale) [5] | Post-emergence Test IPOHE, percentage damage to the plant (five-point scale) [6] | Post-emergence Test ECHCG, percentage damage to the plant (five-point scale) [7] | Post-emergence Test SETFA, percentage damage to the plant (five-point scale) (Setaria faberi (SETFA) [8]) | Post-emergence Test ZEAMX, percentage damage to the plant (five-point scale) (Zea mays (ZEAMX) [9]) | Post-emergence Test ABUTH, percentage damage to the plant (five-point scale) [10] | percentage damage to the plant, ZEAMX (Zea mays (ZEAMX) [11]) | percentage damage to the plant, IPOHE [12] |
| --- | --- | --- | --- | --- | --- | --- | --- | --- | --- | --- | --- | --- |
| CCn1c(C)c(-c2ccnc(OC)c2)c(=O)c(C(=O)O)c1-c1ccc(Cl)c(Cl)c1 [Compound 53, 2-(3,4-dichlorophenyl)-1-ethyl-5-(2-methoxy-4-pyridyl)-6-methyl-4-oxo-pyridine-3-carboxylic acid] | 4 (4=61-80%) | 3 (3=41-60%) | 3 (3=41-60%) | 1 (1=0-20%) | 3 (3=41-60%) | 2 (2=21-40%) | 3 (3=41-60%) | 4 (4=61-80%) | 2 (2=21-40%) | 4 (4=61-80%) | 1 (1=0-20%) | 3 (3=41-60%) |
| CCn1c(C)c(-c2ccc(C(C)(C)C)cc2)c(=O)c(C(=O)O)c1-c1ccc(Cl)c(Cl)c1 [Compound 55, 5-(4-tert-butylphenyl)-2-(3,4-dichlorophenyl)-1-ethyl-6-methyl-4-oxo-pyridine-3-carboxylic acid] | 1 (1=0-20%) | 1 (1=0-20%) | 1 (1=0-20%) | 1 (1=0-20%) | 1 (1=0-20%) | 1 (1=0-20%) | 1 (1=0-20%) | 1 (1=0-20%) | 1 (1=0-20%) | 1 (1=0-20%) | 1 (1=0-20%) | 1 (1=0-20%) |
| CCn1c(C)c(-c2ccc(Cl)cc2)c(=O)c(C(=O)O)c1-c1ccc(Br)cc1F [Compound 133, 2-(4-bromo-2-fluoro-phenyl)-5-(4-chlorophenyl)-1-ethyl-6-methyl-4-oxo-pyridine-3-carboxylic acid] | 5 (5=81-100%) | 4 (4=61-80%) | 3 (3=41-60%) | 2 (2=21-40%) | 4 (4=61-80%) | 3 (3=41-60%) | – | 1 (1=0-20%) | 1 (1=0-20%) | 2 (2=21-40%) | 2 (2=21-40%) | 2 (2=21-40%) |
| CCn1c(C)c(-c2ccc(F)cc2OC)c(=O)c(C(=O)OC)c1-c1ccc(Cl)c(Cl)c1 [Compound 164, methyl 2-(3,4-dichlorophenyl)-1-ethyl-5-(4-fluoro-2-methoxy-phenyl)-6-methyl-4-oxo-pyridine-3-carboxylate] | 0 | 0 | – | 0 | 1 (1=0-20%) | 1 (1=0-20%) | 0 | 1 (1=0-20%) | 1 (1=0-20%) | 1 (1=0-20%) | 0 | 0 |
| CCn1c(C)c(-c2ccc(F)cc2F)c(=O)c(C(=O)O)c1-c1ccc(Cl)cc1 [Compound 192, 2-(4-chlorophenyl)-5-(2,4-difluorophenyl)-1-ethyl-6-methyl-4-oxo-pyridine-3-carboxylic acid] | 2 (2=21-40%) | 2 (2=21-40%) | 2 (2=21-40%) | 1 (1=0-20%) | 2 (2=21-40%) | 2 (2=21-40%) | – | 4 (4=61-80%) | 2 (2=21-40%) | 4 (4=61-80%) | 0 | 1 (1=0-20%) |

Reference: patent publication US12660819B2, “Herbicidal derivatives” (SYNGENTA CROP PROTECTION AG, priority 2020, dated 2026)
